Values after ≈ are worked out from the molar mass of the structure shown.
Experiments:
[1] = test system: Staphylococcus epidermidis ATCC 35983; assay: Minimum inhibitory concentration (MIC) assay, Staphylococcus epidermidis ATCC 35983; type: cell-based; conditions: ATCC35983, aerobic culture 35+/-2°C, 16 to 20 hours, read with naked eyes
Description: On the day of the experiment, the compound in the flask was dissolved in 100% DMSO until the concentration of mother liquor was 0.4 mg/mL. If the mother liquor was not used on the same day, it was stored at −80° C. for future use.
The compound mother liquor and standard antibiotics were subjected to 2-fold gradient dilution with corresponding solvents on a 96-microwell plate (V-bottom) to obtain 100× working solutions (Well 1 to Well 7) in sequence. Among them, the concentrations of the compound were 400 μg/mL, 200 μg/mL, 100 μg/mL, 50 μg/mL, 25 μg/mL, 12.5 μg/mL, 6.25 μg/mL, and 3.125 μg/mL. 100% DMSO was used as growth control (Well 8). As such, the compound motherplate was obtained.
One day before the experiment, aerobic bacteria (Staphylococcus epidermidis) stored in a cryogenic tube at −80° C. were scribed on an MHA (Cation-adjusted Mueller-Hinton agar) plate. The aerobic bacteria were placed in a 35+/−2° C. incubator for 18-24 hours of aerobic cultivation.
On the day of the experiment, the plate was taken out, clones were picked from the plate and suspended in physiological saline. Then, the turbidity of the bacterial suspension (containing 1.0-2.0×10^8 CFU/mL) was adjusted to OD600=0.2 by a turbidity meter. Then, the adjusted bacterial suspension was diluted to an appropriate concentration with the assay culture medium: about 5×10^5 CFU/mL for aerobic bacteria, and about 1×10^6 CFU/mL for anaerobic bacteria. As such, the inoculating solution was obtained.
2 μl of 2-fold series dilution of 100× high-concentration working solution was transferred from a compound mother plate (prepared in step 1) to a round-bottom 96-well plate, and then 198 μL of bacterial inoculating solution (prepared in step 2) was added to each well to obtain an MIC assay plate. Therefore, the final assay concentrations of the compound were 4 μg/mL, 2 μg/mL, 1 μg/mL, 0.5 μg/mL, 0.25 μg/mL, 0.125 μg/mL, 0.06 μg/mL and 0.03 μg/mL. The total volume of each well on the assay plate was 200 μL: containing 1% DMSO, about 5×10^5 CFU/mL of aerobic bacteria and about 1×10^6 CFU/mL of anaerobic bacteria.
All assay plates for aerobic bacteria were aerobically cultured at 35+/−2° C. for 16 to 20 hours, and all assay plates for anaerobic bacteria were anaerobically cultured in an anaerobic incubator at 35+/−2° C. for 48 hours.

CXCL1/KC = assay: Acne model in mice: CXCL1 level in left ear tissue; type: in vivo, Balb/C mice
Description: Experimental strain: Propionibacterium acnes ATCC 6919 (Beijing Biobw Biotechnology Co., Ltd.) Experimental animals: Balb/C mice (Zhejiang Vital River Laboratory Animal Technology Co., Ltd.) Balb/C mice were grouped and numbered, and adaptively fed for one week. On the day of modeling, Propionibacterium acnes was taken, and OD600 was measured using a microplate reader. BH1 culture medium was diluted to OD600=1 (about 5×10^8 CFU/mL), centrifuged to discard supernatant, and the remaining culture was diluted to 1×10^8 CFU/mL with PBS. Once the molding began, the mice were anesthetized with a small animal anesthesia machine, the air flow and isoflurane content of the anesthesia machine were adjusted, and the mice were placed in an anesthesia induction chamber for anesthesia induction. […] Mouse BCA protein detection: after Propionibacterium acnes was injected for 48 hours, the BCA protein detection was detected by using the BCA protein concentration assay kit. The left ear of mouse was homogenized with 1 mL of PBS and the dilution factor equivalent to a mass volume ratio of 1:9 was calculated, then centrifuged at 1500 g for 10 minutes. […] […] was measured with a microplate reader, the standard curves were plotted, and the BCA concentrations were calculated. […]

CN(C)c1cc2c(cn1)-c1ccc3c(=O)c(C(=O)O)cn(C4CC4)c3c1COC2 [Compound 6]
MIC [1]: 0.06 µg/mL (≈ 0.153 µM) | CXCL1 Mean ± SD (CXCL1/KC; Balb/C mice, left ear homogenate, 48 hours after injection of Propionibacterium acnes, 15 μL applied at 4, 20, 28, 44 hours, drugs as hydrochloride): 191.5 ± 32.71 pg/mg | CXCL1 content in the left ear tissues of mice after treatment (CXCL1/KC; compared with acne model group, p<0.001, in words): significantly reduced

Source: US20250042912A1, “NOVEL NON-FLUORINATED QUINOLONE COMPOUND AND USE THEREOF” (priority 2021, published 2025)
